Laboratory results from patent US7148200B2, “Method for treating cancer” (Toyo Suisan Kaisha, Ltd., priority 1999, dated 2006).
pIC50: −log10 of the molar value. Counter-ions that a name gives are not always drawn.

Target: T1, DNA polymerase α (Bos taurus, UniProt A0AAA9TD94)
T1 construct: from tissue; host or cells: bovine thymus
T1 sequence (A0AAA9TD94 1-1441): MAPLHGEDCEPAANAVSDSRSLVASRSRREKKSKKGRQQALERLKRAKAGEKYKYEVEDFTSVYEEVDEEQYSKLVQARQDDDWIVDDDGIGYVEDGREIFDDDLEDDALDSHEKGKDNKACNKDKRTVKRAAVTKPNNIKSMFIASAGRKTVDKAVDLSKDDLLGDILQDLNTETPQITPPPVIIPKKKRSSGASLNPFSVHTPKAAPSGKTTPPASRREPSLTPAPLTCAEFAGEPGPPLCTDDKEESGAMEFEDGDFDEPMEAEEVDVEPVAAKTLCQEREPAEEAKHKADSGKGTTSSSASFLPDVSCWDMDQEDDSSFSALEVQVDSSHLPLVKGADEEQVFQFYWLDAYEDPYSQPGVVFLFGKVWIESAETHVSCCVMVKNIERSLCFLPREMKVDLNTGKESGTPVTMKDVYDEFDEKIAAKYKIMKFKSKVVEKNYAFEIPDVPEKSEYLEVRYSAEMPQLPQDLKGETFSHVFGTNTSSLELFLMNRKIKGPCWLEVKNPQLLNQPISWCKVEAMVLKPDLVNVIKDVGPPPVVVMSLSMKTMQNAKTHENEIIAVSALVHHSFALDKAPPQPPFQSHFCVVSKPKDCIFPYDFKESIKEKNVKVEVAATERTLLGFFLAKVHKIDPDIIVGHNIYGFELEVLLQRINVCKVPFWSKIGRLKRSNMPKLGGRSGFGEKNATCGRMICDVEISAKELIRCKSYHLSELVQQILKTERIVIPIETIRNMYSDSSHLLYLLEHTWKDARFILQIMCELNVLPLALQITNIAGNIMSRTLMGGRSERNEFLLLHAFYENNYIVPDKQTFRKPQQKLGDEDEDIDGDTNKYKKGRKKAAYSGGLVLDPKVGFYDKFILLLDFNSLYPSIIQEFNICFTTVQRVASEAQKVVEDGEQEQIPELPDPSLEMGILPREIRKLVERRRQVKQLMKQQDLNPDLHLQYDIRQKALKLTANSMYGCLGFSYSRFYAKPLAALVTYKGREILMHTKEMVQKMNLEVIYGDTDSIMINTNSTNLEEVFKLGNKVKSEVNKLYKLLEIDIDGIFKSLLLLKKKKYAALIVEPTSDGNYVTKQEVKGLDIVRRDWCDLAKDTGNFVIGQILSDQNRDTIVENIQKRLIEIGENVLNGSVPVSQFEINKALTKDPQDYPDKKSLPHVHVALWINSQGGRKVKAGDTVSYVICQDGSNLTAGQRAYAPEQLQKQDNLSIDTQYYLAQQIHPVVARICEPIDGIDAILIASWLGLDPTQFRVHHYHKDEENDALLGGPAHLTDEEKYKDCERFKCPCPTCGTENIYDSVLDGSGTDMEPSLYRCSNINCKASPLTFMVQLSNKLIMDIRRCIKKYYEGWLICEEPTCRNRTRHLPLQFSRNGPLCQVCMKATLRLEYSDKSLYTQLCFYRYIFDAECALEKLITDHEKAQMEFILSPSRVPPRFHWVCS
Experiment: Assay 1: inhibitory effect against DNA polymerase α ([3H]-dTTP incorporation)
Type: biochemical
Conditions: DNA polymerase α from bovine thymus, 37° C., 60 minutes
Description: An assay on inhibitory effect against a DNA polymerase α was carried out in the following manner.
0.05 U of a DNA polymerase α purified and isolated from a bovine thymus by an immunoaffinity column was mixed with each of test compounds, sulfopyranosylacylglycerol (hereinafter, simply referred to as “SQAG”) derivatives, namely, SQAG 1, SQAG 2 and SQAG 3 (listed in table 1) dissolved in DMSO. Each mixture was added with a buffer containing inorganic salts for the enzymatic reaction, [^3H]-labeled dTTP and compounds for reaction containing a template DNA strand, and incubated at 37° C. for 60 minutes.
After the enzymatic reaction was quenched, the resultant reaction product was fixed on a dedicated filter and subjected to measurement by a liquid scintillation counter. The amount of enzymatically incorporated dTTP was calculated as a radiation dose (cpm) of [^3H]. Note that, each of the sulfopyranosylacylglycerol derivatives is a mixture of the S- and R-configurations with respect to an absolute configuration of the carbon of the 2-position of the glycerol moiety.

Row | Compound | pIC50
1 | CCCCCC/C=C\CCCCCCCC(=O)OCC(O)CO[C@H]1O[C@H](CS(=O)(=O)O)[C@@H](O)[C@H](O)[C@H]1O (stereo partly drawn) [SQAG2, 3-O-(6-deoxy-6-sulfo-α-D-glucopyranosyl)-1-O-palmitoleoyl-glycerol sodium salt] | 5.02
2 | CCCCCCCC/C=C\CCCCCCCC(=O)OCC(O)CO[C@H]1O[C@H](CS(=O)(=O)O)[C@@H](O)[C@H](O)[C@H]1O (stereo partly drawn) [SQAG3, 3-O-(6-deoxy-6-sulfo-α-D-glucopyranosyl)-1-O-oleoyl-glycerol Sodium Salt] | 5.48
3 | CCCC/C=C\CCCCCCCC(=O)OCC(O)CO[C@H]1O[C@H](CS(=O)(=O)O)[C@@H](O)[C@H](O)[C@H]1O (mixture of isomers) [SQAG1, 3-O-(6-deoxy-6-sulfo-α-D-glucopyranosyl)-1-o-myristoleoly-glycerol sodium salt] | 4.77
